# According to ChEMBL document CHEMBL4834480, “Discovery of 3,5-Dimethyl-4-Sulfonyl-1H-Pyrrole-Based Myeloid Cell Leukemia 1 Inhibitors with High Affinity, Selectivity, and Oral Bioavailability” (J Med Chem, 2021):
# pIC50, pKd: −log10 of the molar value. Calls of active or inactive are those of the source. The rule behind the calls is not given here.
# Key:
# Bcl-2-related protein A1 = target: T1, Bcl-2-related protein A1 (Homo sapiens, UniProt Q16548); assay: Binding affinity to human partial length BCL2A1 (M1 to G153 residues) expressed in bacterial expression system by BCL2SCAN assay
# T1 sequence (Q16548 whole entry): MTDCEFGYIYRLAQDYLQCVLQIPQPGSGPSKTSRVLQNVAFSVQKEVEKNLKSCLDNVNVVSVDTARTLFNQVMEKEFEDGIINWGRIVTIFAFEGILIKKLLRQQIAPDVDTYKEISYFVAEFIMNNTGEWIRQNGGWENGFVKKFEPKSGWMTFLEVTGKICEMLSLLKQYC
# Bcl-2-like protein 2 = target: T2, Bcl-2-like protein 2 (Homo sapiens, UniProt Q92843); assay: Binding affinity to human partial length BCLW (M1 to R171 residues) expressed in bacterial expression system by BCL2SCAN assay
# T2 sequence (Q92843 whole entry): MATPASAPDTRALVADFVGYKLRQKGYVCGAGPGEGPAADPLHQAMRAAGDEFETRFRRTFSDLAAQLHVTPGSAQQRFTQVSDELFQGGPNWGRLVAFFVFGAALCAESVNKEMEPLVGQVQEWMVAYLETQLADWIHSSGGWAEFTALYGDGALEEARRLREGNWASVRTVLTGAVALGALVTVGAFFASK
# [1] = Permeability of the compound at pH 7.4 measured after 4 hrs by PAMPA assay; format: ADME; conditions: read-out: permeability
# [2] = Water solubility of the compound; format: physicochemical
# MV4-11 [3] = assay: Antiproliferative activity against human MV4-11 cells assessed as decrease in cell viability measured after 72 hrs by MTT assay; format: functional, cell-based; conditions: MV4-11, 72 h
# K562 [4] = assay: Antiproliferative activity against human K562 cells assessed as decrease in cell viability measured after 72 hrs by MTT assay; format: functional, cell-based; conditions: K562, 72 h
# K562 [5] = assay: Induction of apoptosis in human K562 cells assessed as upregulation of cleaved PARP up to 5 uM measured after 48 hrs by Western blot analysis; format: functional, cell-based; conditions: dose microM <=5, time 48.0 hrs
# NCI-H929 = assay: Induction of apoptosis in human NCI-H929 cells assessed as activation of caspase 7 after 4 hrs by luminescence based microplate reader assay; format: functional, cell-based; conditions: dose microM <=5, time 4.0 hrs
# K562 [6] = assay: Induction of apoptosis in human K562 cells assessed as activation of caspase 3 up to 5 uM after 4 hrs by luminescence based microplate reader assay; format: functional, cell-based; conditions: dose microM <=5, time 4.0 hrs
# K562 [7] = assay: Induction of apoptosis in human K562 cells assessed as activation of caspase 7 up to 5 uM after 4 hrs by luminescence based microplate reader assay; format: functional, cell-based; conditions: dose microM <=5, time 4.0 hrs
# CYP1A2 = target: T3, CYP1A2 (Homo sapiens, UniProt P05177); assay: Inhibition of CYP1A2 (unknown origin) at 10 uM preincubated for 5 min followed by NADPH addition and measured after 20 mins by LC-MS/MS analysis relative to control; format: ADME; conditions: time 25 min
# T3 sequence (P05177 whole entry): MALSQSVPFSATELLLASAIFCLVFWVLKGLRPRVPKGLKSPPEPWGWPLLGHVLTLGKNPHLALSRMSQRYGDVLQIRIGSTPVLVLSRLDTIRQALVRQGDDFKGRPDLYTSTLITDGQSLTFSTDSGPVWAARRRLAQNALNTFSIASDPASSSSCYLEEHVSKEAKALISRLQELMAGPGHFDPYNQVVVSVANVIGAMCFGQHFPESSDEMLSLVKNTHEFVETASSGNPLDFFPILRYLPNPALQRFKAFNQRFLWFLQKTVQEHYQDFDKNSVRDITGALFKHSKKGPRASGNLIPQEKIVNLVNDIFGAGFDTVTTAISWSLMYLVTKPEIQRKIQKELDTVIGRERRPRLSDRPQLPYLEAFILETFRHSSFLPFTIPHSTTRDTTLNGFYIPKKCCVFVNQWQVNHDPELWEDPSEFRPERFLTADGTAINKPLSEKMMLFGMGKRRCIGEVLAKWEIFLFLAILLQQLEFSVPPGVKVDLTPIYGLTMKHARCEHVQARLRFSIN
# CYP2C19 = CYP2C19 (Homo sapiens, UniProt P33261); assay: Inhibition of CYP2C19 (unknown origin) at 10 uM preincubated for 5 min followed by NADPH addition and measured after 20 mins by LC-MS/MS analysis relative to control; format: ADME; conditions: time 25 min
# CYP2C19, sequence (P33261 whole entry): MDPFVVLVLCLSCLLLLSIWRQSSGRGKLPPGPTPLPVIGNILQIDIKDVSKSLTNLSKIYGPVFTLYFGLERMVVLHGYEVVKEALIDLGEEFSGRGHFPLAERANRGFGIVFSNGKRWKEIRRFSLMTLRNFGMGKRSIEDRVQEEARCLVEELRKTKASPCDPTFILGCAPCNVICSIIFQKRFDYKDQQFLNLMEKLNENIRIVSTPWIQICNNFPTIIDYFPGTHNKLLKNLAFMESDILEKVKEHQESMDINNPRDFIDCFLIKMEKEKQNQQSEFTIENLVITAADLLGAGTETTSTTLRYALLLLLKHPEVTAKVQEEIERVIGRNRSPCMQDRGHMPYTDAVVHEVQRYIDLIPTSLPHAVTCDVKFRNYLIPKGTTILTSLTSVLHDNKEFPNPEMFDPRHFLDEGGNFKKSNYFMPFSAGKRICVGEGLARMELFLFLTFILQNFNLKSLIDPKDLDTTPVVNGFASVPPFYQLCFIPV
# CYP2D6 = CYP2D6 (Homo sapiens, UniProt P10635); assay: Inhibition of CYP2D6 (unknown origin) at 10 uM preincubated for 5 min followed by NADPH addition and measured after 20 mins by LC-MS/MS analysis relative to control; format: ADME; conditions: time 25 min
# CYP2D6, sequence (P10635 whole entry): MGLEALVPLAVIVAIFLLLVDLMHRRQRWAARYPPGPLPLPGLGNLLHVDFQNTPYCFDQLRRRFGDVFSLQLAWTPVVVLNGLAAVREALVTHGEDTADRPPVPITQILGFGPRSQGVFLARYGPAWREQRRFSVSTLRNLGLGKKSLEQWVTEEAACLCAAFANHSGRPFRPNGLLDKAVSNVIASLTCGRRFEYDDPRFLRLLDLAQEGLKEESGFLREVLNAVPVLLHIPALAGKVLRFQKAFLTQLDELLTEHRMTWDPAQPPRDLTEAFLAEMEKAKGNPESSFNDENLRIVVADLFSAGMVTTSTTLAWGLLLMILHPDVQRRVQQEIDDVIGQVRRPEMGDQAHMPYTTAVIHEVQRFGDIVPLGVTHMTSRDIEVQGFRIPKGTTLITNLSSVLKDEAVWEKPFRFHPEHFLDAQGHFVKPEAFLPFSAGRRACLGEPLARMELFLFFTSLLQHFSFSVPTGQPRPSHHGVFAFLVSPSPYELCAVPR
# [8] = Half life in rat liver microsomes; format: ADME, Microsome
# P-gp = P-gp (Homo sapiens, UniProt P08183); assay: Substrate activity at P-gp in human Caco-2 cells assessed as permeability across apical to basolateral membrane by LC-MS/MS analysis; format: ADME, cell-based; conditions: read-out: permeability
# P-gp, sequence (P08183 whole entry): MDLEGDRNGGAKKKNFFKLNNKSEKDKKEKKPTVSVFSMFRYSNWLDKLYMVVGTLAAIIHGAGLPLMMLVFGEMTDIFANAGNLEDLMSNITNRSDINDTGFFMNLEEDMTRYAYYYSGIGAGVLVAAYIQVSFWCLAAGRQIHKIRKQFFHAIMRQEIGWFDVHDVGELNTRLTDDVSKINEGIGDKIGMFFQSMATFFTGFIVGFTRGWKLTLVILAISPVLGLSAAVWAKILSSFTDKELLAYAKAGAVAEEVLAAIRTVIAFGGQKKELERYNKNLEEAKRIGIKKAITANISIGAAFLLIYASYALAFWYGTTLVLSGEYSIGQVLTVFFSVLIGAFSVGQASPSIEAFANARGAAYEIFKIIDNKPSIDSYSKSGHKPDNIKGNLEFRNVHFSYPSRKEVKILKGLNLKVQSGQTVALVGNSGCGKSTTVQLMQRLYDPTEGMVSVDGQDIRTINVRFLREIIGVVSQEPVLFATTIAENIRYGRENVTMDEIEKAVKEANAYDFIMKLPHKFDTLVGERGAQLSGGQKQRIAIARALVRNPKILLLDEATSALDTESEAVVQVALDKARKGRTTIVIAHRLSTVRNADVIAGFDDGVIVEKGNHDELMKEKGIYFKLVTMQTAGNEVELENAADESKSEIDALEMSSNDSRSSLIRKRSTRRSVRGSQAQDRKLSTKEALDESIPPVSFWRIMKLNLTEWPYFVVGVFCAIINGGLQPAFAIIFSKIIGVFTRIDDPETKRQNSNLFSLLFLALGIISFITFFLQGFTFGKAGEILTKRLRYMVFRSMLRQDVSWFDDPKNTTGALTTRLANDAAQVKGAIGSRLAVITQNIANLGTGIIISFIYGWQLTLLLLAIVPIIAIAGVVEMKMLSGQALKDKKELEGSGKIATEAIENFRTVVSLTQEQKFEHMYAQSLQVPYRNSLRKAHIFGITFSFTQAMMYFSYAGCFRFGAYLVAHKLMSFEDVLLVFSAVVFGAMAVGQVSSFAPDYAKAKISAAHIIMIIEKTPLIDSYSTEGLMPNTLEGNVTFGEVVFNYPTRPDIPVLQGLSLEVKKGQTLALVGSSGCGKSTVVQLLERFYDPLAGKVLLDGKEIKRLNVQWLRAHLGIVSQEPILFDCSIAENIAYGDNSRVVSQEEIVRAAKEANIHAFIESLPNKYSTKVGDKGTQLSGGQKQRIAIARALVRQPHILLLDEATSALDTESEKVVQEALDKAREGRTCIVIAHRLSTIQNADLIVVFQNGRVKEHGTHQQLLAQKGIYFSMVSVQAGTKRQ
# [9] = Apparent volume of distribution in Sprague-Dawley rat at 3 mg/kg, iv measured up to 24 hrs by LC-MS/MS analysis; format: ADME, organism-based; conditions: in vivo, read-out: Vz
# [10] = Half life in Sprague-Dawley rat at 10 mg/kg, po measured up to 24 hrs by LC-MS/MS analysis; format: ADME, organism-based; conditions: in vivo
# [11] = Clearance in Sprague-Dawley rat at 10 mg/kg, po measured up to 24 hrs by LC-MS/MS analysis; format: ADME, organism-based; conditions: in vivo
# [12] = Apparent volume of distribution in Sprague-Dawley rat at 10 mg/kg, po measured up to 24 hrs by LC-MS/MS analysis; format: ADME, organism-based; conditions: in vivo
# [13] = AUCt in Sprague-Dawley rat at 10 mg/kg, po measured up to 24 hrs by LC-MS/MS analysis; format: ADME, organism-based; parameters: route oral, dose 10 mg/kg, time <=24; conditions: in vivo
# MV4-11 [14] = assay: Antitumor activity against human MV4-11 cells xenografted in BALB/c nude mouse assessed as tumor growth inhibition by measuring T/C ratio at 60 mg/kg, po administered every two days for 14 days relative to control; format: functional; conditions: time 14 day
# [15] = Toxicity in BALB/c nude mouse xenografted with human MV4-11 cells assessed as effect on body weight at 20 mg/kg, ip administered every two days for 14 days; format: organism-based; conditions: in vivo, 336 h, time 14 day
# [16] = Toxicity in BALB/c nude mouse xenografted with human MV4-11 cells assessed as effect on body weight at 60 mg/kg, po administered every two days for 14 days; format: organism-based; conditions: in vivo, 336 h, time 14 day
# [17] = Toxicity in BALB/c nude mouse xenografted with human MV4-11 cells assessed as effect on liver weight at 20 mg/kg, ip administered every two days for 14 days; format: organism-based; conditions: in vivo, 336 h, time 14 day
# [18] = Toxicity in BALB/c nude mouse xenografted with human MV4-11 cells assessed as effect on kidney weight at 20 mg/kg, ip administered every two days for 14 days; format: organism-based; conditions: in vivo, 336 h, time 14 day
# MV4-11 [19] = assay: Antitumor activity against human MV4-11 cells xenografted in BALB/c nude mouse assessed as induction of tumor necrosis at 60 mg/kg, po administered every two days for 14 days by hematoxyin-eosin staining based analysis; format: functional, organism-based; conditions: time 14.0 day
# [20] = Toxicity in BALB/c nude mouse xenografted with human MV4-11 cells assessed as effect on kidney at 60 mg/kg, po administered every two days for 14 days by hematoxyin-eosin staining based analysis; format: organism-based; conditions: in vivo, 336 h, time 14 day
smiles,measurement,setting,value
CC(=O)c1ccc(S(=O)(=O)c2c(C)c(C(=O)O)n(CCCOc3cc(C)c(Cl)c(C)c3)c2C)cc1,pKd,Bcl-2-related protein A1,< 5.00
same,pKd,Bcl-2-like protein 2,< 5.00
same,Papp at 4 h,[1],52.6 ×10⁻⁶ cm/s
same,solubility,[2],32.3 µg/mL
same,pIC50,MV4-11 [3],6.15
same,pIC50,K562 [4],< 4.52
same,Activity,K562 [5],inactive
same,Activity,NCI-H929,Dose-Dependent Effect
same,Activity,K562 [6],inactive
same,Activity,K562 [7],inactive
same,"inhibition at 20 min, 10 µM",CYP1A2,19.3%
same,"inhibition at 20 min, 10 µM",CYP2C19,2.85%
same,"inhibition at 20 min, 10 µM",CYP2D6,9.13%
same,half-life,[8],0.75 h
same,Papp A→B,P-gp,3.62 ×10⁻⁶ cm/s
same,Vd,[9],3.08 L/kg
same,half-life,[10],2.1 h
same,CL/F,[11],36.8 mL/min/kg
same,Vz,[12],6.65475 L/kg
same,AUC(0-t) at 24 h,[13],4530 ng·h/mL
same,T/C,MV4-11 [14],37.3%
same,Activity,[15],Non-Toxic
same,Activity,[16],Non-Toxic
same,Activity,[17],Non-Toxic
same,Activity,[18],Non-Toxic
same,Activity,MV4-11 [19],Active
same,Activity,[20],Non-Toxic
